The compounds below were run against T1, human H3R (Homo sapiens, UniProt Q9Y5N1) (assay: Binding assay with 3H-(R)α-methylhistamine (competition binding, H3R-CHO membranes)). Conditions: competition vs 3H(R)α-methylhistamine (1 nM), membranes of the human H3R-CHO cell line; Ki calculated from IC50 by Cheng-Prusoff.
T1 construct: expressed in transfected cells; host or cells: CHO cells
Description: Binding Assay with ^3H—(R)α-methylhistamine
Saturation binding experiments were performed using HR3-CHO membranes prepared as described in Takahashi, K, Tokita, S., Kotani, H. (2003) J. Pharmacol. Exp. Therapeutics 307, 213-218.
An appropriate amount of membrane (60 to 80 μg protein/well) was incubated with increasing concentrations of ^3H(R)α-Methylhistamine di-hydrochloride (0.10 to 10 nM). Non specific binding was determined using a 200 fold excess of cold (R)α-Methylhistamine dihydrobromide (500 nM final concentration). The incubation was carried out at room temperature (in deep-well plates shaking for three hours). The final volume in each well was 250 μl. The incubation was followed by rapid filtration on GF/B filters (pre-soaked with 100 μl of 0.5% PEI in Tris 50 mM shaking at 200 rpm for two hours). The filtration was made using a cell-harvester and the filter plates were then washed five times with ice cold washing buffer containing 0.5 M NaCl. After harvesting, the plates were dried at 55° C. for 60 min, then we added scintillation fluid (Microscint 40, 40 microl in each well) and the amount of radioactivity on the filter was determined in Packard top-counter after shaking the plates for two hours at 200 rpm at room temperature. • Binding Buffer: 50 mM Tris-HCl pH 7.4 and 5 mM MgCl2×6H2O pH 7.4. Washing Buffer: 50 mM Tris-HCl pH 7.4 and 5 mM MgCl2×6H2O and 0.5 M NaCl pH 7.4.
Indirect measurement of affinity of H3R inverse agonists: twelve increasing concentrations (ranging from 10 μM to 0.3 nM) of the selected compounds were always tested in competition binding experiments using membrane of the human H3R—CHO cell line. An appropriate amount of protein, e.g. approximately 500 cpm binding of RAMH at Kd, were incubated for 1 hour at room temperature in 250 μl final volume in 96-well plates in presence of ^3H(R)α-methylhistamine (1 nM final concentration=Kd). Non-specific binding was determined using a 200 fold excess of cold (R)α-methylhistamine dihydrobromide.
All compounds were tested at a single concentration in duplicate. […] The concentration at which 50% inhibition of the radioligand ^3H(R)α-methylhistamine is obtained (the IC50) is determined from the linear regression of a plot of the logarithm of the concentration versus percent inhibition measured for the different concentrations. Ki's were calculated from IC50 based on Cheng-Prusoff equation (Cheng, Y. Prusoff, W H (1973) Biochem Pharmacol 22, 3099-3108): Ki=IC50/[1+D/Kd] wherein D is the concentration of the radioligand and Kd is the binding constant for the radioligand binding to the receptor under the conditions used in the competition experiment.

T1 sequence (Q9Y5N1 whole entry): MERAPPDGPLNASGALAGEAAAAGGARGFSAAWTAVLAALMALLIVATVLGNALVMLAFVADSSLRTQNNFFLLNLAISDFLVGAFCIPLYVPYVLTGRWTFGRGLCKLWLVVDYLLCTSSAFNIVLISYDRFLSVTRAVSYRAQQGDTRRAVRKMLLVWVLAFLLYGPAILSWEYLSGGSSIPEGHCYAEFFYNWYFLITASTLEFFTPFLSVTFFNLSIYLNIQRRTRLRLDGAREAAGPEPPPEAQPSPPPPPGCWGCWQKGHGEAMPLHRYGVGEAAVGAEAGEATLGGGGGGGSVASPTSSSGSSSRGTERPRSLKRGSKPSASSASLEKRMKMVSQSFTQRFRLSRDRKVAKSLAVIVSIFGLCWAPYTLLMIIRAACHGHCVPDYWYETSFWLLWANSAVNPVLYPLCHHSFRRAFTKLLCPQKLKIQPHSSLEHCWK

SMILES	Ki
CC(C)N1CCC(Oc2cc3cc(C(=O)N4CCN(S(=O)(=O)N(C)C)CC4)[nH]c3cc2Br)CC1 [Example 3, 4-[6-Bromo-5-(1-isopropyl-piperidin-4-yloxy)-1H-indole-2-carbonyl]-piperazine-1-sulfonic acid dimethylamide]	4.3 nM
CC(C)N1CCC(Oc2cc3cc(C(=O)N4CCN(S(C)(=O)=O)CC4)n(C(C)C)c3cc2Br)CC1 [Example 5, [6-Bromo-1-isopropyl-5-(1-isopropyl-piperidin-4-yloxy)-1H-indol-2-yl]-(4-methanesulfonyl-piperazin-1-yl)-methanone]	3.4 nM
CC(C)N1CCC(Oc2cc3cc(C(=O)N4CCN(C(=O)C5CC5)CC4)[nH]c3cc2Br)CC1 [Example 18, [6-Bromo-5-(1-isopropyl-piperidin-4-yloxy)-1H-indol-2-yl]-(4-cyclopropanecarbonyl-piperazin-1-yl)-methanone]	2.3 nM
CC(=O)N1CCN(C(=O)c2cc3cc(OC4CCN(C(C)C)CC4)c(Br)cc3n2-c2ccnc(Cl)c2)CC1 [Example 28, 1-{4-[6-Bromo-1-(2-chloro-pyridin-4-yl)-5-(1-isopropyl-piperidin-4-yloxy)-1H-indole-2-carbonyl]-piperazin-1-yl}-ethanone]	1.8 nM
Cc1ccc(S(=O)(=O)N2CCN(C(=O)c3cc4cc(O[C@H]5C[C@H]6CC[C@@H](C5)N6C(C)C)ccc4n3C(C)C)CC2)cc1 [Example 44, [1-Isopropyl-5-((1S,3r,5R)-8-isopropyl-8-aza-bicyclo[3.2.1]oct-3-yloxy)-1H-indol-2-yl]-[4-(toluene-4-sulfonyl)-piperazin-1-yl]-methanone]	2.4 nM
CC(C)N1CCC(Oc2ccc3c(c2)cc(C(=O)N2CCN(S(C)(=O)=O)CC2)n3CC(F)F)CC1 [Example 55, [1-(2,2-Difluoro-ethyl)-5-(1-isopropyl-piperidin-4-yloxy)-1H-indol-2-yl]-(4-methanesulfonyl-piperazin-1-yl)-methanone]	6.7 nM
COC(=O)N1CCN(C(=O)c2cc3cc(OC4CCN(C(C)C)CC4)ccc3n2C(C)C)CC1 [Example 73, 4-[1-Isopropyl-5-(1-isopropyl-piperidin-4-yloxy)-1H-indole-2-carbonyl]-piperazine-1-carboxylic acid methyl ester]	10.4 nM

Reference: patent US7507736B2, “Indol-2-yl-piperazin-1-yl-methanone derivatives” (Hoffmann-La Roche Inc., priority 2007, dated 2009)
